In ChEMBL document CHEMBL3045789, “Tetracyclic spirooxindole blockers of hNaV1.7: activity in vitro and in CFA-induced inflammatory pain model” (Med Chem Res, 2013):
pIC50: −log10 of the molar value. Converted amounts (≈) assume the structure as drawn. The source made the active and inactive calls. The rule behind the calls is not given here.

Assays:
[1] = Solubility of the compound in phosphate buffered saline at pH 7.4; format: physicochemical
[2] = target: Sodium channel protein type 9 subunit alpha (Homo sapiens, UniProt Q15858); test: Inhibition of Homo sapiens (human) NaV1.7 expressed in HEK293 cells assessed as decrease in [14C]guanidinium influx after 2 hr by liquid scintillation counting analysis; format: cell-based
Chain of Sodium channel protein type 9 subunit alpha (Q15858 whole entry): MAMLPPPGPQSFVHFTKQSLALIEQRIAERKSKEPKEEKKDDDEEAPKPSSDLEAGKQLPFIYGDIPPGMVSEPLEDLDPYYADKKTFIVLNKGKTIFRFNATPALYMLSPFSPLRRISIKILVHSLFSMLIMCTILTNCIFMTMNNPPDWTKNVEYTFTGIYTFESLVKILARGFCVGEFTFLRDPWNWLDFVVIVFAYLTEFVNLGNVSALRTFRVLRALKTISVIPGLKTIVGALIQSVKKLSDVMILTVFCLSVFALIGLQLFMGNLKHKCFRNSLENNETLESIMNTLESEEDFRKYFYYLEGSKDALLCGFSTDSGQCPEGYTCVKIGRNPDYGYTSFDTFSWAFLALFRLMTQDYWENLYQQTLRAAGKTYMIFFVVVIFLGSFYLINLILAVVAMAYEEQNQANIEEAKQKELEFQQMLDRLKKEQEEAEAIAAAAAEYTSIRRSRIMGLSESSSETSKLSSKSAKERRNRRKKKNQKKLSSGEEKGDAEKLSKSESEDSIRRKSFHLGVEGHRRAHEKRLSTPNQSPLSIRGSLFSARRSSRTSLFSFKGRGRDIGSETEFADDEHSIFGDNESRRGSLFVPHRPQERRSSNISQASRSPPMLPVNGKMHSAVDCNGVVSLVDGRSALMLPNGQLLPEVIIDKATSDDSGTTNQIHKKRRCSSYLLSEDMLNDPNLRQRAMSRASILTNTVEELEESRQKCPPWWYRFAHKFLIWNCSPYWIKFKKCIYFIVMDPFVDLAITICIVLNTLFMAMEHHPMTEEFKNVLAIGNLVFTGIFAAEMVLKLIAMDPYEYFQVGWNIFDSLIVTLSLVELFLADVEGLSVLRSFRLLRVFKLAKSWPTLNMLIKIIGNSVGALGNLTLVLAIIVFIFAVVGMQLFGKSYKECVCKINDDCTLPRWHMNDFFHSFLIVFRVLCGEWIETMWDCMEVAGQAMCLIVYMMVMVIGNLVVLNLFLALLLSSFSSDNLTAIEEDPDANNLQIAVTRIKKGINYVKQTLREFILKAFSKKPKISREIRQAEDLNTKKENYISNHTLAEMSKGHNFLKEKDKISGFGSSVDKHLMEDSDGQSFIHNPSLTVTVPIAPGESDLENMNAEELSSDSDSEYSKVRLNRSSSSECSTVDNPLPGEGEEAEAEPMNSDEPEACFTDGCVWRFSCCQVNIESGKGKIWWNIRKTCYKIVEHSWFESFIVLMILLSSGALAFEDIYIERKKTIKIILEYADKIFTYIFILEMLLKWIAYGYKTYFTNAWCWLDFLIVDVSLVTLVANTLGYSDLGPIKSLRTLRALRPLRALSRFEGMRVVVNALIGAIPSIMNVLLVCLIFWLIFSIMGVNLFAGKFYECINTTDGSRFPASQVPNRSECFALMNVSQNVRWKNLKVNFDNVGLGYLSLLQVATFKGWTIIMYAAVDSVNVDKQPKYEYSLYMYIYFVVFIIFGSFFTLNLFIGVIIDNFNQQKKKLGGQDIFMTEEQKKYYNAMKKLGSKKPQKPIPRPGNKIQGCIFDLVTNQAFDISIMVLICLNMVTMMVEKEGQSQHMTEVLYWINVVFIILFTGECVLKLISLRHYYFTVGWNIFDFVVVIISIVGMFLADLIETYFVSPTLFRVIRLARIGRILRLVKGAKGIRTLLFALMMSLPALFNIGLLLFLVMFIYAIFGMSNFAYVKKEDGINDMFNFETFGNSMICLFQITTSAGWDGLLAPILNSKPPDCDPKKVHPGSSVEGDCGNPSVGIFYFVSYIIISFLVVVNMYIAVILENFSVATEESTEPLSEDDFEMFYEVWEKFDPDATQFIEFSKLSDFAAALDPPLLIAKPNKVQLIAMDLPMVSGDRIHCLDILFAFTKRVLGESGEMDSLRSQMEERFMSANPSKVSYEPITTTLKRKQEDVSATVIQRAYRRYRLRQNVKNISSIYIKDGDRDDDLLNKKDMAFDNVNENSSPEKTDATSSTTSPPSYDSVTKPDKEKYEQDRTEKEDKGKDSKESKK

[3] = target: CYP3A4 (Homo sapiens, UniProt P08684); test: Inhibition of Homo sapiens (human) recombinant CYP3A4 at 10 uM by fluorogenic assay; format: ADME
Chain of CYP3A4 (P08684 whole entry): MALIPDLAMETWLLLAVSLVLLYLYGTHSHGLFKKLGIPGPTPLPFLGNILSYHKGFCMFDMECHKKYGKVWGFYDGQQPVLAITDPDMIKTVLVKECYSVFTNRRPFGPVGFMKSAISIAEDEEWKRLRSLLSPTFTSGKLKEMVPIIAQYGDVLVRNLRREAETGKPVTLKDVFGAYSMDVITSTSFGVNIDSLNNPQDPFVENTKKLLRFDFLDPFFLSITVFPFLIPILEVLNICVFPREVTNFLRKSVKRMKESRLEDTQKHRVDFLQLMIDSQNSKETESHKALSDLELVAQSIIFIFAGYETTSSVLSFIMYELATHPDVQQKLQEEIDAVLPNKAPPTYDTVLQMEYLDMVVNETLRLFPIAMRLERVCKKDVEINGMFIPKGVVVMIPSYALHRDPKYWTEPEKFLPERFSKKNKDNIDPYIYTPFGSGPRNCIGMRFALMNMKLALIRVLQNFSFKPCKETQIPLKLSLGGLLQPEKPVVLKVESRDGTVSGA

[4] = system: Rattus norvegicus; test: Analgesic activity in CFA-induced Rattus norvegicus (rat) inflammatory pain model assessed as reduction of mechanical allodynia at 10 mg/kg, ip after 1 hr by von Frey test; format: functional, organism-based; set-up: dose 10 mg/kg
[5] = Metabolic stability in Rattus norvegicus (rat) liver microsomes assessed as compound remaining after 30 min; format: ADME; conditions: read-out: Stability
[6] = system: Rattus norvegicus; test: Analgesic activity in CFA-induced Rattus norvegicus (rat) inflammatory pain model assessed as reduction of mechanical allodynia at 40 mg/kg, po after 1 hr by von Frey test; format: functional, organism-based; set-up: dose 40 mg/kg
[7] = target: hERG (KCNH2) (Homo sapiens, UniProt Q12809); test: Inhibition of Homo sapiens (human) ERG expressed in HEK293 cells at 10 uM after 3 hr by rubidium efflux assay; format: cell-based; conditions: HEK293 cells expressing human ERG
Chain of hERG (KCNH2) (Q12809 whole entry): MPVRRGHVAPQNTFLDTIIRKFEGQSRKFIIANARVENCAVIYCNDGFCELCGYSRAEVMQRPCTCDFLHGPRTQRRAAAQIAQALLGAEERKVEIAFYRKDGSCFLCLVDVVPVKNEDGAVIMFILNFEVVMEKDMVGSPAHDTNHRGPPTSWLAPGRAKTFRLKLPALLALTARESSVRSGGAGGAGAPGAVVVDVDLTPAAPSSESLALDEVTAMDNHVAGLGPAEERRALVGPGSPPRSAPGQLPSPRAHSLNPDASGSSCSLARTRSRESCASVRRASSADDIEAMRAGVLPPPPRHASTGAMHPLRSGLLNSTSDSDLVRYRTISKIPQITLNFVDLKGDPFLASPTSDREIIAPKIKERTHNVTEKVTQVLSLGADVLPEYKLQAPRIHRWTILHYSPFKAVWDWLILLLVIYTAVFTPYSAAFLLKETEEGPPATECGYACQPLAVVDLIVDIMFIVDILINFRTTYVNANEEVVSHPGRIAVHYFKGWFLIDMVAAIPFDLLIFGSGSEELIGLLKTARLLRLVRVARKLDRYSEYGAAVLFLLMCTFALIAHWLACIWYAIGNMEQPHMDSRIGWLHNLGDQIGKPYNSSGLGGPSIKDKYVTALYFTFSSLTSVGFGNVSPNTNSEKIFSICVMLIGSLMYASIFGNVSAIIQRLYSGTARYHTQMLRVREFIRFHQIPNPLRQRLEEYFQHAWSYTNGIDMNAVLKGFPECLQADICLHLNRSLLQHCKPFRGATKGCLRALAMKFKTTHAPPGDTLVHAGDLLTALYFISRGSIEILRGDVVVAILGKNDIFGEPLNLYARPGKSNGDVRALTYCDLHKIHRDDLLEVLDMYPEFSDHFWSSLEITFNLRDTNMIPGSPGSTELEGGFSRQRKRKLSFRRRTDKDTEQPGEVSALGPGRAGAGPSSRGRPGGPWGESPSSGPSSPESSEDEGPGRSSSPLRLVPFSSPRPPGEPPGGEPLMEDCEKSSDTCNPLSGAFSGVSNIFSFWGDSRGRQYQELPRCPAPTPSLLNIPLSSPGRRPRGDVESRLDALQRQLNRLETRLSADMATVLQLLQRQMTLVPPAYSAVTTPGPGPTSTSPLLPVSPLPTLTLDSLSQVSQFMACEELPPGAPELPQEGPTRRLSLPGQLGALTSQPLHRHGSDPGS

[8] = Cmax in Sprague-Dawley Rattus norvegicus (rat) at 10 mg/kg, po; format: ADME, organism-based; set-up: dose 10 mg/kg, route oral; conditions: in vivo
[9] = Metabolic stability in Rattus norvegicus (rat) hepatocytes assessed as compound remaining after 2 hr; format: ADME, cell-based, Hepatocyte; conditions: read-out: Stability
[10] = AUClast in Sprague-Dawley Rattus norvegicus (rat) at 1 mg/kg, iv; format: ADME, organism-based; set-up: time 0 - last, dose 1 mg/kg, route intravenous; conditions: plasma
[11] = target: Cytochrome P450 3A4 (Homo sapiens, UniProt P08684); test: Inhibition of Homo sapiens (human) recombinant CYP3A4 by fluorogenic assay; format: ADME
Chain of Cytochrome P450 3A4 (P08684 whole entry): as the sequence (P08684 whole entry) above

[12] = Apparent permeability across apical to basolateral side in Homo sapiens (human) Caco2 cells; format: ADME, cell-based; conditions: Caco-2
[13] = Apparent permeability across basolateral to apical side in Homo sapiens (human) Caco2 cells; format: ADME, cell-based; conditions: Caco-2
[14] = Metabolic stability in Homo sapiens (human) hepatocytes assessed as compound remaining after 2 hr; format: ADME, cell-based, Hepatocyte; conditions: read-out: Stability
[15] = Oral bioavailability in Sprague-Dawley Rattus norvegicus (rat) at 10 mg/kg; format: ADME, organism-based; conditions: in vivo
[16] = Metabolic stability in Canis lupus familiaris (dog) hepatocytes assessed as compound remaining after 2 hr; format: ADME, cell-based, Hepatocyte; conditions: read-out: Stability
[17] = system: Rattus norvegicus; test: Analgesic activity in CFA-induced Rattus norvegicus (rat) inflammatory pain model assessed as reduction of mechanical allodynia at 10 mg/kg, po after 1 hr by von Frey test relative to vehicle-treated control; format: functional; set-up: scale not given: the % may be the effect or the level left
[18] = Plasma protein binding in Rattus norvegicus (rat); format: ADME, cell-free; conditions: read-out: PPB (converted)
[19] = Volume of distribution at steady state in Sprague-Dawley Rattus norvegicus (rat) at 1 mg/kg, iv; format: ADME, organism-based; set-up: dose 1 mg/kg, route intravenous; conditions: in vivo, read-out: Vdss
[20] = Terminal half life in Sprague-Dawley Rattus norvegicus (rat) at 1 mg/kg, iv; format: ADME, organism-based; set-up: dose 1 mg/kg, route intravenous; conditions: in vivo, read-out: beta t1/2 (converted)
[21] = Cytotoxicity against Homo sapiens (human) HepG2 cells assessed as cell viability after 16 hr; format: cell-based; conditions: read-out: Activity
[22] = AUClast in Sprague-Dawley Rattus norvegicus (rat) at 10 mg/kg, po; format: ADME, organism-based; set-up: time 0 - last, dose 10 mg/kg, route oral; conditions: plasma
[23] = Tmax in Sprague-Dawley Rattus norvegicus (rat) at 10 mg/kg, po; format: ADME, organism-based; set-up: dose 10 mg/kg, route oral; conditions: in vivo
[24] = Clearance in Sprague-Dawley Rattus norvegicus (rat) at 1 mg/kg, iv; format: ADME, organism-based; set-up: dose 1 mg/kg, route intravenous; conditions: in vivo
[25] = Cmax in Sprague-Dawley Rattus norvegicus (rat) at 1 mg/kg, iv; format: ADME, organism-based; set-up: dose 1 mg/kg, route intravenous; conditions: in vivo

Row | solubility [1] | pIC50 [2] | inhibition at 10 µM [3] | Structure (SMILES) | also measured
1 | 52 µg/mL (≈ 194 µM) | < 6.00 | 27% | COc1ccc2c(n1)C1(CO2)C(=O)Nc2ccccc21 (stereo unspecified) | –
2 | 25 µg/mL (≈ 69.8 µM) | 8.10 | 29% | COc1ccc2c(c1)OCC21C(=O)N(Cc2ccccn2)c2ccccc21 (stereo unspecified) | –
3 | 36 µg/mL (≈ 95.6 µM) | 6.33 | 16% | COc1cc2c(cc1F)OCC21C(=O)N(Cc2ccccn2)c2ccccc21 (stereo unspecified) | –
4 | < 5 µg/mL | 7.22 | 73% | COc1ccc2c(n1)C1(CO2)C(=O)N(Cc2ccc(Cl)s2)c2ccccc21 (stereo unspecified) | –
5 | – | – | 97% | CCCCCN1C(=O)C2(COc3cc4c(cc32)OCO4)c2ccccc21 (stereo unspecified) | –
6 | < 5 µg/mL | 7.30 | 14% | COc1cc2c(cn1)OCC21C(=O)N(C[C@H]2CCCO2)c2ccccc21 (stereo partly specified) | –
7 | 8 µg/mL (≈ 18.7 µM) | 6.15 | 75% | COc1cc2c(cc1OC)C1(CO2)C(=O)N(Cc2ccc(Cl)s2)c2ccccc21 (stereo unspecified) | –
8 | 61 µg/mL (≈ 173 µM) | 7.70 | 22% | COc1cc2c(cn1)OCC21C(=O)N(C[C@@H]2CCCO2)c2ccccc21 (stereo partly specified) | Activity [4]: inactive; remaining at 0.5 h [5]: 8%; Activity [6]: inactive
9 | 45 µg/mL (≈ 128 µM) | 6.96 | 18% | COc1ccc2c(c1)OCC21C(=O)N(C[C@H]2CCCO2)c2ccccc21 (stereo partly specified) | –
10 | 7 µg/mL (≈ 18.8 µM) | 5.94 | 61% | COc1cc2c(cc1C)C1(CO2)C(=O)N(Cc2ccccn2)c2ccccc21 (stereo unspecified) | –
11 | 5 µg/mL (≈ 12.3 µM) | 7.22 | 70% | COc1ccc2c(n1)C1(CO2)C(=O)N(Cc2csc(C(C)C)n2)c2ccccc21 (stereo unspecified) | –
12 | < 5 µg/mL | < 6.00 | 10% | N#Cc1cc2c(cc1F)OCC21C(=O)N(Cc2ncccc2C(F)(F)F)c2ccccc21 (stereo unspecified) | –
13 | < 5 µg/mL | 8.40 | 74% | COc1cc2c(cn1)OCC21C(=O)N(Cc2ccc(C(F)(F)F)o2)c2ccccc21 (stereo unspecified) | –
14 | < 5 µg/mL | 6.62 | 50% | CCCCCN1C(=O)C2(COc3cc(F)c(F)cc32)c2ccccc21 (stereo unspecified) | –
15 | 5 µg/mL (≈ 12 µM) | 7.52 | 63% | COc1ccc2c(n1)C1(CO2)C(=O)N(Cc2ccc3c(c2)OCCO3)c2ccccc21 (stereo unspecified) | –
16 | 52 µg/mL (≈ 194 µM) | 6.46 | 13% | COc1cc2c(cn1)OCC21C(=O)Nc2ccccc21 (stereo unspecified) | –
17 | < 5 µg/mL | < 6.60 | 49% | COc1ccc2c(n1)C1(CO2)C(=O)N(Cc2ncccc2C(F)(F)F)c2ccccc21 (stereo unspecified) | –
18 | 15 µg/mL (≈ 39.9 µM) | 6.72 | 36% | COc1cc2c(cc1F)C1(CO2)C(=O)N(Cc2ccccn2)c2ccccc21 (stereo unspecified) | –
19 | < 5 µg/mL | 6.74 | 42% | COc1ccc2c(n1)C1(CO2)C(=O)N(Cc2ccccn2)c2ccccc21 (stereo unspecified) | –
20 | 67 µg/mL (≈ 183 µM) | 7.00 | 22% | COc1cc2c(cn1)OCC21C(=O)N(CC2CCCCO2)c2ccccc21 (stereo unspecified) | –
21 | 14 µg/mL (≈ 38.3 µM) | 8.00 | 35% | COc1ccc2c(c1)OCC21C(=O)N(CC2CCCCO2)c2ccccc21 (stereo unspecified) | –
22 | < 5 µg/mL | 6.89 | 26% | COc1ccc2c(n1)C1(CO2)C(=O)N(Cc2ccc(C(F)(F)F)o2)c2ccccc21 (stereo unspecified) | inhibition at 3 h, 10 µM [7]: 7.5%; Cmax [8]: 12.7 ng/mL; remaining at 2 h [9]: 18%; AUC(0-t) [10]: 244 ng·h/mL; pIC50 [11]: < 5.00; Papp A→B [12]: 9.1 ×10⁻⁶ cm/s; Papp B→A [13]: 8.8 ×10⁻⁶ cm/s; remaining at 2 h [14]: 29%; bioavailability [15]: 3.2%; remaining at 2 h [16]: 49%; Activity [17]: 59%; fraction unbound [18]: 0.05; Vd [19]: 4.1 L/kg; half-life [20]: 1.9 h; viability at 16 h [21]: > 96%; AUC(0-t) [22]: 77.1 ng·h/mL; Tmax [23]: 4 h; clearance [24]: 66.7 mL/min/kg; Cmax [25]: 884 ng/mL
23 | < 5 µg/mL | 6.37 | 69% | COc1cc2c(cc1F)C1(CO2)C(=O)N(Cc2ccc(C(F)(F)F)o2)c2ccccc21 (stereo unspecified) | –
24 | 6 µg/mL (≈ 16.8 µM) | 6.64 | 43% | Cc1cc2c(cc1C)C1(CO2)C(=O)N(Cc2ccccn2)c2ccccc21 (stereo unspecified) | –
25 | 46 µg/mL (≈ 114 µM) | 6.82 | 22% | COCCOc1ccc2c(c1)OCC21C(=O)N(Cc2ccccn2)c2ccccc21 (stereo unspecified) | –
26 | 13 µg/mL (≈ 35.7 µM) | 6.57 | 30% | O=C1N(Cc2ccccn2)c2ccccc2C12COc1cc(F)c(F)cc12 (stereo unspecified) | –

Row | Structure (SMILES) | solubility [1] | pIC50 [2] | inhibition at 10 µM [3] | also measured
27 | CCCCCN1C(=O)C2(COc3cc(OC)ccc32)c2ccccc21 (stereo unspecified) | < 5 µg/mL | 7.22 | 64% | –
